Reference: patent US20100184190A1, “Influencing viral lipid constituents” (priority 2006, published 2010)

Tested on: chicken embryo kidney (CEK) cells
Experiment: FTIR microscopy of membrane phase transitions of treated CEK cell membranes
Format: cell-based
Details: treated versus control
Text: The hydrophobic pocket of cyclodexrins has the ability to sequester cholesterol from membranes. When membrane cholesterol content was reduced by cyclodextrin treatment, as compared to the control of FIG. 1A, lipid mobility was reduced and the lipids found more ordered, as shown in FIG. 1B.

## cyclodextrin
  change of membrane lipid order / melting groups (FTIR): significant increase in about 45 °C melting lipid ordered groups

## sphingomyelinase
  change of membrane lipid order / melting groups (FTIR): significant reduction in the lower melting groups and a large increase in more ordered high melting membrane lipid groups
